Measured values from patent US9045517B2, “Glycosylated aminocoumarins and methods of preparing and uses of same” (University College London, priority 2010, dated 2015).
Values after ≈ are worked out from the molar mass of the structure shown.

Key:
[1] = target: T1, DNA Gyrase (Escherichia coli, UniProt P0AES6); test: DNA gyrase supercoiling assay (relaxed pBR322, agarose gel); assay type: biochemical; settings: DNA Gyrase 1U, relaxed pBR322, 37 C, 1 hr
T1 construct: purchased
Protocol: DNA Gyrase (1U) is incubated with relaxed pBR322 (0.5 μg) in a reaction volume of 30 μL at 37 °C for 1 hr in TRIS-HCl (35 mM, pH 7.5), KCl (24 Mm), MgCl2 (4 mM), DTT (2 mM), spermidine (1.8 mM), ATP (1 mM), glycerol (6.5%, w/v), albumin (0.1 mg/mL).
After incubation the mixture was deproteinized with equal volumes of chloroformisoamyl alcohol (24:1) and the end point was determined by separating relaxed and supertwisted plasmid pBR322DNA by agarose gel electrophoresis (0.8% agarose with TBE buffer), running without Ethidium Bromide. After the run the gel is soaked, in tank buffer containing Ethidium Bromide, for 1 and half hours.

[2] = system: A2780 (ovarian cancer); test: MTT anti-proliferative assay, A2780; assay type: cell-based; settings: Homo sapiens, A2780 cells, 24 h continuous exposure
Protocol: (§1) The cell number is estimated colorimetrically based on the transformation of the yellow MTT reagent (3-(4,5-Dimethylthiazol-2-yl)-2,5-diphenyltetrazolium bromide) to a purple formazan dye by mitochondrial enzymes.
(§2) Human cell lines derived from ovarian cancer (A2780, ECACC 93112519), lung cancer (A549, ATCC CCL-185), breast cancer (MCF7, ATCC HTB-22), pancreatic cancer (MiaPaCa2, ATCC CRL-1420) and brain cancer (U87MG, ATCC HTB-14), were obtained from the European Collection of Cell Cultures (ECACC, Salisbury, UK). The A2780, A549, MCF7 and MiaPaCa2 cells were grown in Dulbecco's Modified Eagle Medium (DMEM) supplemented with 10% fetal bovine serum (Biosera, UK), 1% L-glutamine and 1% non-essential aminoacids (Gibco, Invitrogen, USA). U87MG cells were grown in Minimal essential medium supplemented with 10% fetal bovine serum (Biosera, UK), 1% L-glutamine, 1% non-essential aminoacids and 1% Sodium piruvate (Gibco, Invitrogen, USA). Cells were grown in a 5% CO2, 95% humidity incubator. […] The compounds were dissolved in methanol at a maximum concentration of 20 mM, and serial decimal dilutions were prepared in methanol. For each compound and each concentration, 5 μl of the methanol solution were added over the cells, growing in 100 μl of cell culture medium per well (n=6). After 24 h of continuous drug exposure, the growth inhibition was determined using the MTT assay (Lancaster Synthesis Ltd, UK). The amount of dye was quantified spectrophotometrically as absorbance at λ=570 nm (ELx808, Bio-Tek Instruments, Inc.). The IC50 values were calculated by a dose-response analysis using the Origin 6.0® software.

[3] = system: A549 (lung cancer); test: MTT anti-proliferative assay, A549; assay type: cell-based; settings: Homo sapiens, A549 cells, 24 h continuous exposure
Protocol: as §1, §2

[4] = system: U87MG (brain cancer); test: MTT anti-proliferative assay, U87MG; assay type: cell-based; settings: Homo sapiens, U-87 MG, U87MG cells, 24 h continuous exposure
Protocol: as §1, §2

[5] = system: MiaPaCa2 (pancreatic cancer); test: MTT anti-proliferative assay, MiaPaCa2; assay type: cell-based; settings: Homo sapiens, MIA PaCa-2, MiaPaCa2 cells, 24 h continuous exposure
Protocol: as §1, §2

[6] = system: Escherichia coli; test: MIC by micro-broth dilution against Escherichia coli, with or without PEI; assay type: cell-based
Protocol: Microtitre plates were incubated aerobically at 37° C. and read after one and four days. The concentration range tested was 128 to 0.5 μg/ml. A cell permeabilising agent, polyethylenimine (PEI) was used to assess the influence of cell membrane (and associated structures) as a barrier to novobiocin entry into the cell. Isopropyl β-D-1-thiogalactopyranoside (100 μM) was used to induce β-glycosidase and β-galactosidase expression from plasmids pSsβG and pBCSK, respectively. These enzymes can release the native drugs from the conjugates.

[7] = system: MCF7 (breast cancer); test: MTT anti-proliferative assay, MCF7; assay type: cell-based; settings: Homo sapiens, MCF7 cells, 24 h continuous exposure
Protocol: as §1, §2

[8] = Toxicity relative to precursor (no method given); settings: versus novobiocin

Structure (SMILES)	MIC in DNA gyrase assay [1] [µM]	IC50 [2] [µM]	IC50 [3] [µM]	IC50 [4] [µM]	IC50 [5] [µM]	re-growth on prolonged incubation at concentrations above the MIC ([6]; prolonged incubation up to 4 days)	IC50 [7] [µM]	toxicity compared with precursor [8]	increased activity against Escherichia coli in the presence of PEI ([6]; with polyethylenimine (PEI), independent of β-galactosidase)
CO[C@@H]1C(OC(N)=O)C(O)[C@H](Oc2ccc3c(O[C@@H]4O[C@H](CO)[C@H](O)[C@H](O)[C@H]4O)c(NC(=O)c4ccc(O)c(CC=C(C)C)c4)c(=O)oc3c2C)OC1(C)C (some centres unmarked) [Galactosyl_Novobiocin]	3 (≈ 2.32 µg/mL)	100	100	30	30	did not lead to re-growth	40		
CO[C@@H]1C(OC(N)=O)C(O)[C@H](Oc2ccc3c(O[C@@H]4OC(CO)[C@@H](O)C(O)C4O)c(NC(=O)c4ccc(O)c(CC=C(C)C)c4)c(=O)oc3c2C)OC1(C)C (stereo partly drawn) [Glucosyl_Novobiocin, β-4′-O-glucosyl Novobiocin]	3 (≈ 2.32 µg/mL)	130	60	20	10		10	less toxic than its precursor	
CO[C@@H]1[C@@H](OC(N)=O)[C@@H](O)[C@H](Oc2ccc3c(O)c(NC(=O)c4ccc(O)c(CC=C(C)C)c4)c(=O)oc3c2C)OC1(C)C [Novobiocin, reference compound]		190	> 1000	580	320		> 1000		16-32 fold
